Data from publication PMC3388080 (PLoS ONE, 2012).
Where two headings read alike, the source gives them in different places.

Key:
rHCRTR1 [1] = biological target: T1, rHCRTR1 (Rattus norvegicus, UniProt P56718); test: Inhibition of [^3H]almorexant binding to HEK293-rHCRTR1 membranes; conditions: read-out: Ki
T1 construct: expressed in transfected cells; host or cells: HEK293 (transient transfection, pCI-Neo vector), membrane preparation
T1 sequence (P56718 1-416): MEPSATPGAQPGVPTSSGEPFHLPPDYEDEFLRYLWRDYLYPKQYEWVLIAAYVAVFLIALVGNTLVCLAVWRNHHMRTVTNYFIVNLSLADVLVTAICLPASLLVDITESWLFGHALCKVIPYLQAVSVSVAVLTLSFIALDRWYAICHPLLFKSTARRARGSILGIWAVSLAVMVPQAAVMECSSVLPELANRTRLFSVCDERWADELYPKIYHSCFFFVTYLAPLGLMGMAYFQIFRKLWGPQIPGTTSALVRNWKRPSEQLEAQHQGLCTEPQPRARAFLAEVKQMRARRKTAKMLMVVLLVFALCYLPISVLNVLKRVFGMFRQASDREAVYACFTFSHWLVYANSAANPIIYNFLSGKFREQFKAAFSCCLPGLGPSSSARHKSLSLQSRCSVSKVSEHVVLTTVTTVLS
Description: (§1) The rat cDNAs encoding HCRTR1 (Accession No. P56718) and HCRTR2 (Accession No. P56719) were subcloned into pCI-Neo expression vectors (Promega, Madison, WI) and used to transfect HEK293 cells (acquired commercially from ATCC-LGC, Molsheim, France) as previously described.

rHCRTR2 = biological target: T2, rHCRTR2 (Rattus norvegicus, UniProt P56719); test: Inhibition of [^3H]almorexant binding to HEK293-rHCRTR2 membranes
T2 construct: expressed in transfected cells; host or cells: HEK293 (transient transfection, pCI-Neo vector), membrane preparation
T2 sequence (P56719 whole entry): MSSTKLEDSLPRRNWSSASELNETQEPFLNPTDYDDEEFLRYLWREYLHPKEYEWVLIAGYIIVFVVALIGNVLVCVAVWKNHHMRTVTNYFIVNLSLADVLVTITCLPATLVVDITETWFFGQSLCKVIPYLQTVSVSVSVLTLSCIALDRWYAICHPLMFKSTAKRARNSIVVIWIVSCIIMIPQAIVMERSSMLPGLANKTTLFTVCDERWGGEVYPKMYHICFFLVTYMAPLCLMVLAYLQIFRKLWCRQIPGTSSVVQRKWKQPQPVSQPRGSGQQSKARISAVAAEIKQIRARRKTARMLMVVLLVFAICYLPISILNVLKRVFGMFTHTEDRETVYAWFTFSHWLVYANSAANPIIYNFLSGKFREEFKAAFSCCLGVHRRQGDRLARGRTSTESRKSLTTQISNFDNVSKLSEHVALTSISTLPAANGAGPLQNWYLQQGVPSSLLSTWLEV
Description: as §1

in vivo = conditions: rat, in vivo
Method: (§2) Pharmacokinetic analyses were performed at F. Hoffmann-La Roche as described in supporting Materials and Methods S1.
(§3) Cmax, maximum concentration; Tmax, time at which maximum concentration was observed; AUC, area under the plasma concentration vs. time curve; CL, clearance; Vss, volume of distribution at steady state; T1/2, terminal half-life; F, bioavailability; Fu, Fraction unbound. Plasma values are mean, n=2.

in vitro [2] = conditions: human, plasma
Method: as §2

in vitro [3] = conditions: rat, plasma
Method: as §2, §3

[4] = Stability in human plasma
Method: as §2

Stability in rat plasma = test: Stability in rat plasma
Method: as §2

rHCRTR1 [5] = biological target: T1, rHCRTR1; design: method as in PMID 14691055; conditions: cited from earlier work
[6] = design: method as in PMID 19363060; conditions: 30 mg/kg, cited from earlier work
HCRTR1 = biological target: T3, HCRTR1 (Rattus norvegicus, UniProt P56718); design: method as in PMID 19363060; conditions: subcutaneous 30 mg/kg; tenia tecta; cited from earlier work
T3 construct: from tissue; host or cells: coronal brain sections of male Sprague-Dawley rats (locus coeruleus)
T3 sequence (P56718 1-416): T1 sequence (P56718 1-416)

Cc1cc(NC(=O)Nc2ccc(N(C)C)cc2)c2cc(F)cc(F)c2n1 [SB-408124, 1-(6,8-difluoro-2-methyl-quinolin-4-yl)-3-(4-dimethylamino-phenyl)-urea]
Ki (rHCRTR1 [1]): 45.7 ± 4.1 nM
Ki (rHCRTR2): 5370 ± 2200 nM
AUC/Dose (in vivo; Wistar, iv): 7996.40 ng/h/mL
Tmax (in vivo; Wistar, iv): 0 h
Vd (in vivo; Wistar, iv): 0.2 L/kg
clearance (in vivo; Wistar, iv): 2.1 mL/min/kg
half-life (in vivo; Wistar, iv): 1.12 h
Cmax/Dose (in vivo; Wistar, iv, 12.1 mg/kg): 4738.30 ng/mL
AUC/Dose (in vivo; Wistar, po): 3455.70 ng/h/mL
Tmax (in vivo; Wistar, po): 2.67 h
bioavailability (in vivo; Wistar, po): 43.2%
half-life (in vivo; Wistar, po): 1.95 h
Cmax/Dose (in vivo; Wistar, po, 18.16 mg/kg): 704.8 ng/mL
Vss (in words) (in vivo): low
systemic plasma clearance (in words) (in vivo): low
oral bioavailability (in words) (in vivo; po): medium
fraction unbound (in vitro [2]): 0.003
fraction unbound (in vitro [3]): < 0.001
stability in plasma ([4]; 1 h): 94%
stability in plasma ([4]; 4 h): 88%
stability in plasma (Stability in rat plasma; 1 h): 101%
stability in plasma (Stability in rat plasma; 4 h): 107%
Ki (rHCRTR1 [5]): 26.9 nM
brain-to-plasma ratio ([6]; calculated from Cmax values): 0.012
Cmax ([6]; read-out: plasma Cmax): 84.3 µM
HCRTR1 occupancy (HCRTR1): 90%
